Columns and labels:
Format in all cases: in vivo
[1] = tested on: cell line RT112/84 xenograft; assay: Antitumor effect in RT112/84 subcutaneous xenograft model in mice; conditions: oral, once a day for 14 days, tumor volume last day
Description: Human […] cancer cell line RT112/84 (ECACC Number EC85061106-F0), which had been cultured in an RPMI-1640 medium containing 10% […], and penicillin and streptomycin, were adjusted to a concentration of 1×10^8 cells/mL with Hanks' Balanced Salt Solution (GIBCO 1424020) to prepare a cell suspension, and the suspension was mixed with […] (BD Biosciences, Cat/354234) in a ratio of 1:1 to prepare a cell suspension in a concentration of 5×10^7 cells/ml. The cell suspension was inoculated in a volume of 100 μL into a subcutaneous part of a right flank of nude mice, 7 weeks of age (BALB/cAJcl-nu/nu, female, Clea Japan Inc.). Ten days after cell inoculation, the shortest diameter and the longest diameter of a tumor in each mouse were measured by using an electronic digital caliper (Digimatic™ caliper, Mitutoyo Corporation), so as to calculate the volume of the tumor in accordance with the following calculation formula: Tumor volume(mm^3)=Longest diameter(mm)×Shortest diameter(mm)×Shortest diameter(mm)/2 […]
With respect to each of the control group and test substance administration group, a ratio of the weight measured on the final day to the weight measured on the first day (relative body weight: RBW) was calculated. […]

[2] = tested on: human lung cancer cell line NCI-H1581 xenograft; assay: Antitumor effect in NCI-H1581 subcutaneous xenograft model in mice; conditions: oral, once a day for 11 days, tumor volume last day
Procedure: Human lung cancer cell line NCI-H1581, which had been cultured in RPMI-1640 medium containing 10% FBS, and penicillin and streptomycin, were adjusted to a concentration of 1×10^8 cells/mL with Hanks' Balanced Salt Solution(GIBCO #24020) to prepare a cell suspension, and the suspension was mixed with […] in a ratio of 1:1 to prepare a cell suspension in a concentration of 5×10^7 cells/mL. The cell suspension was inoculated in a volume of 100 μL into a subcutaneous part of a right flank of each of nude mice, 6 to 7 weeks of ages (BALB/cAJcl-nu/nu, female, Clea Japan Inc.). Ten to 11 days after the cell inoculation, the shortest diameter and the longest diameter of a tumor in each mouse were measured by using an electronic digital caliper (Digimatic™ caliper, Mitutoyo Corporation), so as to calculate the volume of the tumor in accordance with the following calculation formula: Tumor volume(mm^3)=Longest diameter(mm)×Shortest diameter(mm)×Shortest diameter(mm)/2
(§1) On the basis of the volumes of tumors obtained on the first day of administration, the nude mice were grouped such that averages of the tumor volumes were substantially equal among the groups. Each test substance was dissolved in DMSO, Tween 80 was added thereto to prepare a solution in a 10-fold concentration and the thus prepared solution was stored at the freezer before use. Immediately before the administration, the stock solution was diluted with a 5% glucose solution to obtain a final administration solution (in which a ratio in % among DMSO, Tween 80 and the 5% glucose solution was 3.5:6.5:90). Each evaluation sample was orally administered to test substance administration group at a volume of 0.4 mL per 20 g of body weight once a day continuously for 11 days, and in a control group, an administration solvent was orally administered under the same conditions. Incidentally, the experiment was conducted on groups each consisting of 5 mice.
(§2) With respect to each of the control group and test substance administration group, a ratio of the weight measured on the final day to the weight measured on the first day (relative body weight: RBW) was calculated. If a ratio of the RBW of the test substance administration group/the RBW of the control group is 0.9 or more, the corresponding test substance administration group was defined as a well-tolerated. In the test substance administration group thus defined as well-tolerated, a ratio of the tumor volume of the test substance-dosing group to the tumor volume of the control group obtained on the last day (TIC) (%) was calculated, and shown in Table 22.

[3] = tested on: human stomach cancer cell line SNU-16 xenograft; assay: Antitumor effect in SNU-16 subcutaneous xenograft model in mice; conditions: oral, once a day for 11 days, tumor volume last day
Description: Human stomach cancer cell line SNU-16, which had been cultured in an RPMI-1640 medium containing 10% FBS, and penicillin and streptomycin, were adjusted to a concentration of 1×10^8 cells/mL with Hanks' Balanced Salt Solution (GIBCO #24020) to prepare a cell suspension, and the suspension was mixed with […] (BD Biosciences, Cat#354234) in a ratio of 1:1 to prepare a cell suspension in a concentration of 5×10^7 cells/ml. The cell suspension was inoculated in a volume of 100 ut into a subcutaneous part of a right flank of nude mice, 6 to 7 weeks of ages (BALB/cAiel-nu/nu, female, Clea Japan Inc.). Seven days after cell inoculation, the shortest diameter and the longest diameter of a tumor in each mouse were measured by using an electronic digital caliper (Digimatie™ caliper, Mitutoyo Corporation), so as to calculate the volume of the tumor in accordance with the following calculation formula: Tumor volume(mm^3)Longest diameter(mm)×Shortest diameter(mm)×Shortest diameter(mm)/2
as §1
as §2, with “mom,” for “more,”, “21.” for “22.”

For CNC(=O)n1ccc2cc(Oc3ccnc(NC(=O)c4ccc(C5CCN(CCO)CC5)cc4)c3)c(OCCOC)cc21 [Example 22, 5-((2-(4-(1-(2-Hydroxyethyl)piperidin-4-yl)benzamide)pyridin-4-yl)oxy)-6-(2-methoxyethoxy)-N-methyl-1H-indole-1-carboxamide], the “T/C (%)” value ([1]; 25 mg/kg) was 62%, the “T/C (%)” value ([1]; 50 mg/kg) was 33% and the “T/C (%)” value ([2]; 6.25 mg/kg) was 46%. The “T/C (%)” value ([2]; 12.5 mg/kg) was 21%, the “T/C (%)” value ([2]; 25 mg/kg) was 13% and the “T/C (%)” value ([2]; 50 mg/kg) was 8%. For the same compound, the “T/C (%)” value ([3]; 6.25 mg/kg) was 49%, the “T/C (%)” value ([3]; 12.5 mg/kg) was 26% and the “T/C (%)” value ([3]; 25 mg/kg) was 17%. The “T/C (%)” value ([3]; 50 mg/kg) was 18%.

— US8933099B2, “Monocyclic pyridine derivative” (Eisai R&D Management Co., Ltd., priority 2013, dated 2015)
